Measured values published in patent publication US9487489B2, “Halogen-substituted pyrazole derivatives as pest-control agents” (BAYER CROPSCIENCE AKTIENGESELLSCHAFT, priority 2013, dated 2016).

Assays:
[1] = logP determination by HPLC on a reversed-phase column (C18), EEC Directive 79/831 Annex V.A8; type: physicochemical
Experimental: (§1) ^a) Note regarding the determination of the logP values and mass detection: The determination of the given logP values was carried out in accordance with EEC Directive 79/831 Annex V.A8 by HPLC (High Performance Liquid Chromatography) on a reversed-phase column (C18). Agilent 1100 LC system; 50*4.6 Zorbax Eclipse Plus C18 1.8 micron; mobile phase A: acetonitrile (0.1% formic acid); mobile phase B: water (0.09% formic acid); linear gradient from 10% acetonitrile to 95% acetonitrile in 4.25 min, then 95% acetonitrile for a further 1.25 min; oven temperature 55° C.; flow rate: 2.0 ml/min. Mass detection is carried out via an Agilend MSD system.
as §1, with “^*)” for “^a)”

[2] = system: adult cat fleas (Ctenocephalides felis); assay: Ctenocephalides felis in vitro contact test with adult cat fleas (T1); settings: after 48 h
Experimental: T1. Ctenocephalides felis—in vitro Contact Tests with Adult Cat Fleas
For the coating of the test tubes, initially 9 mg of active compound are dissolved in 1 ml of acetone p.a. and then diluted with acetone p.a. to the desired concentration. By turning and rocking on an orbital shaker (2 h of rocking rotation at 30 rpm), 250 μl of the solution are distributed homogeneously on the internal walls and the floor of a 25 ml test tube. At 900 ppm active compound solution and 44.7 cm^2 internal surface, an area dose of 5 μg/cm^2 is achieved for homogeneous distribution.
After evaporation of the solvent, the tubes are populated with 5-10 adult cat fleas (Ctenocephalides felis), sealed with a perforated plastic lid and incubated in a horizontal position at room temperature and ambient humidity. After 48 h, the efficacy is determined. To this end, the test tubes are stood upright and the fleas are knocked to the floor of the tube. Fleas which remain motionless on the floor or move in an uncoordinated manner are considered to be dead or moribund.
An efficacy of 100% means that all fleas were dead or moribund. 0% efficacy means that none of the fleas had been damaged.

[3] = system: larvae of the mustard beetle (Phaedon cochleariae); assay: Phaedon cochleariae spray test (PHAECO); type: in vivo; settings: Chinese cabbage leaf discs, after 7 days
Experimental: H. Phaedon cochleariae-spray Test (PHAECO)
Solvents: 78.0 parts by weight of acetone
• 1.5 parts by weight of dimethylformamide Emulsifier: alkylaryl polyglycol ether
To produce a suitable preparation of active compound, 1 part by weight of active compound is dissolved using the stated parts by weight of solvent and made up with water comprising an emulsifier concentration of 1000 ppm until the desired concentration is reached. To produce further test concentrations, the preparation is diluted with emulsifier-containing water.
After 7 days, the efficacy in % is determined. 100% means that all of the beetle larvae have been killed; 0% means that none of the beetle larvae have been killed.

[4] = HPLC on reversed-phase column (C18), acetonitrile/water with formic acid, EEC Directive 79/831 Annex V.A8
[5] = HPLC, reversed-phase C18, acetonitrile (0.1% formic acid)/water (0.09% formic acid) gradient

Cn1nc(C(F)(F)F)c(C=NO)c1-n1cc(-c2ccc(Cl)c(C(=O)NC3CC3)c2)cn1 (mixture of isomers) [Ic-50]
logP [1, 4]: 2.47

Cn1nc(C(F)(F)C(F)(F)F)c(C(F)(F)F)c1-n1cc(-c2ccc(Cl)c(C(=O)Nc3nn[nH]n3)c2)cn1 [Ic-144]
efficacy (dead or moribund fleas) ([2]; application rate 1 μg/cm^2): 100% | efficacy (dead or moribund fleas) ([2]; application rate 5 μg/cm^2): 100%

Cn1nc(C(F)(F)C(F)(F)F)c(C(F)(F)F)c1-n1cc(-c2cncc(C(=O)NC3(C#N)CC3)n2)cn1 [Ic-179]
efficacy in % ([3]; application rate 500 g/ha): 100%

Cn1nc(C(F)(F)C(F)(F)F)c(C(F)(F)F)c1-n1cnc(-c2cccc(C(=O)NC3CC3)c2)n1 [Ie-3]
logP [1, 5]: 3.50

CCC(=O)N(C(=O)c1cc(-c2cnn(-c3c(C(F)(F)F)c(C(F)(F)C(F)(F)F)nn3C)c2)ccc1Cl)C1(C#N)CC1 [Ic-205]
logP [1, 4]: 4.63

CCCN(C(=O)c1cc(-c2cnn(-c3c(C(F)(F)F)c(C(F)(F)C(F)(F)F)nn3C)c2)ccc1Cl)C1(C#N)CC1 [Ic-204]
logP [1, 4]: 4.56

Cn1nc(C(F)(F)C(F)(F)F)c(C(F)(F)F)c1-n1cnc(-c2ccc(Cl)c(C(=O)NC3CC3)c2)n1 [Ie-2]
logP [1, 5]: 3.72

Cn1nc(C(F)(F)C(F)(F)F)c(C(F)(F)F)c1-n1cc(-c2ccc(Cl)c(C(=O)NC3(C4CCC4)CC3)c2)cn1 [Ic-210]
logP [1, 4]: 4.77

C=CCN(C(=O)c1cc(-c2cnn(-c3c(C(F)(F)F)c(C(F)(F)C(F)(F)F)nn3C)c2)ccc1Cl)C1(C#N)CC1 [Ic-206]
logP [1, 4]: 4.44

CN(C)CCNC(=O)c1cc(-c2cnn(-c3c(C(F)(F)F)c(C(F)(F)C(F)(F)F)nn3C)c2)ccc1Cl [Ic-138]
efficacy (dead or moribund fleas) ([2]; application rate 5 μg/cm^2): 80%

Cn1nc(C(F)(F)C(F)(F)F)c(C(F)(F)F)c1-n1cc(-c2cc(C(=O)NC3CC3)c(F)c(S(N)(=O)=O)c2)cn1 [Ic-173]
efficacy in % ([3]; application rate 500 g/ha): 100%

Cn1nc(C(F)(F)C(F)(F)F)c(C(F)(F)F)c1-n1cc(-c2ccc(C(F)(F)F)c(C(=O)NC3CC3)c2)cn1 [Ic-196]
logP [1, 4]: 3.96

Cn1nc(C(F)(F)C(F)(F)F)c(C(F)(F)F)c1-n1cc(-c2ccc(Cl)c(C(=O)Nc3ccc(F)cc3)c2)cn1 [Ic-209]
logP [1, 4]: 4.53

Cn1nc(C(F)(F)F)c(C=NO)c1-n1cc(-c2ccc(Cl)c(C(=O)NC3(C#N)CC3)c2)cn1 (mixture of isomers) [Ic-98]
logP [1, 4]: 2.42

CCN(C(=O)c1cc(-c2cnn(-c3c(C(F)(F)F)c(C(F)(F)C(F)(F)F)nn3C)c2)ccc1Cl)C1(C#N)CC1 [Ic-208]
logP [1, 4]: 4.33

CN(C(=O)c1cc(-c2cnn(-c3c(C(F)(F)F)c(C(F)(F)C(F)(F)F)nn3C)c2)ccc1Cl)C1CC1 [Ic-199]
efficacy (dead or moribund fleas) ([2]; application rate 1 μg/cm^2): 100% | efficacy (dead or moribund fleas) ([2]; application rate 5 μg/cm^2): 100%

Cn1nc(C(F)(F)F)c(CCl)c1-n1cc(-c2ccc(Cl)c(C(=O)NC3CC3)c2)cn1 [Ic-114]
logP [1, 4]: 3.12

CCN(CC)C(=O)c1cc(-c2cnn(-c3c(C(F)(F)F)c(C(F)(F)C(F)(F)F)nn3C)c2)ccc1S(=O)(=O)NC1CC1 [Ic-197]
logP [1, 4]: 4.39

CC(NC(=O)c1cc(-c2cnn(-c3c(C(F)(F)F)c(C(F)(F)C(F)(F)F)nn3C)c2)ccc1Cl)C1CC1 (centres unmarked) [Ic-207]
logP [1, 4]: 4.4

Cn1nc(C(F)(F)C(F)(F)F)c(C(F)(F)F)c1-n1cc(-c2cc(C(=O)NC3(C#N)CC3)c(Cl)cc2F)cn1 [Ic-93]
efficacy in % ([3]; application rate 500 g/ha): 100%

CCN(C(=O)c1cc(-c2cnn(-c3c(C(F)(F)F)c(C(F)(F)C(F)(F)F)nn3C)c2)ccc1Cl)C1CC1 [Ic-211]
efficacy (dead or moribund fleas) ([2]; application rate 1 μg/cm^2): 100% | efficacy (dead or moribund fleas) ([2]; application rate 5 μg/cm^2): 100%

Cn1nc(C(F)(F)C(F)(F)F)c(C(F)(F)F)c1-n1cc(-c2ccc(Cl)c(C(=O)Nc3ccon3)c2)cn1 [Ic-145]
efficacy (dead or moribund fleas) ([2]; application rate 1 μg/cm^2): 100% | efficacy (dead or moribund fleas) ([2]; application rate 5 μg/cm^2): 100%

Cn1nc(C(F)(F)C(F)(F)F)c(C(F)(F)F)c1-n1cc(-c2ccc(Cl)c(C(=O)NCc3ncc[nH]3)c2)cn1 [Ic-146]
efficacy (dead or moribund fleas) ([2]; application rate 1 μg/cm^2): 80% | efficacy (dead or moribund fleas) ([2]; application rate 5 μg/cm^2): 80%

Cn1nc(C(F)(F)C(F)(F)F)c(C(F)(F)F)c1-n1cc(-c2cncc(C(=O)NC3CC3)n2)cn1 [Ic-178]
efficacy in % ([3]; application rate 100 g/ha): 100%
